One data set in a line: Solubility in water. The data set is classed as physicochemical. On the procedure:
This poor solubility in water makes it difficult to deliver the compound and related compounds of formula (1) and has limited clinical development, thus creating a need for the development of a formulation suitable for clinical use. The present invention was developed with a goal of obtaining a suitable formulation that can provide a stable suspension of the compound at a concentration of about 100 mg/mL or a dried formulation that could be either delivered orally or used to prepare a stable suspension. While the invention is described and exemplified primarily with respect to 1-(3,5-dimethoxyphenyl)-4-[(6-fluoro-2-methoxyquinoxalin-3-yl)aminocarbonyl]piperazine, it is to be understood that the invention is applicable to other compounds of formula (1).
1-(3,5-Dimethoxyphenyl)-4-[(6-fluoro-2-methoxyquinoxalin-3-yl)aminocarbonyl]piperazine has a very poor solubility in water, less than 0.1 μg/ml, and its solubility was tested in several co-solvents. […] Thus, these classical formulations are not useful in clinical use, although they could be used in some limited purpose in pre-clinical studies.
Particles were crystalline and irregularly shaped. FIG. 1 illustrates particles of 1-(3,5-Dimethoxyphenyl)-4-[(6-fluoro-2-methoxyquinoxalin-3-yl)aminocarbonyl]piperazine at 400× Magnification. […]

Data set [1] can be described thus: Particle size of unmilled API by laser diffraction. The data set is classed as physicochemical. The conditions noted are these: dispersed in aqueous solution of Aerosol OT. The text has this: (§1) API morphology can be characterized by optical microscopy (e.g., Olympus BX51 microscope with Clemex JS-2000 controller). Differential scanning calorimetry (e.g., Mettler-Toledo DSC 1) and thermogravimetric analysis (e.g., Mettler-Toledo TGA/DSC 1) can be used to measure the thermal characteristics of the material. Particle size measurements can be made throughout by, for example, laser diffraction (e.g. Horiba LA-950V2), by dispersing the material, either in water, when surfactant is present in the test sample or in a dilute solution of poloxamer when no other dispersant was present.
Based on chemical structure, the refractive index of 1-(3,5-dimethoxyphenyl)-4-[(6-fluoro-2-methoxyquinoxalin-3-yl)aminocarbonyl]piperazine was predicted to be 1.637. For particle size measurements, the imaginary component of the refractive index, or the i-value (a unitless factor used by the laser diffraction algorithm to account for the absorption of light by the particles) was determined to be 0.1. Unmilled 1-(3,5-Dimethoxyphenyl)-4-[(6-fluoro-2-methoxyquinoxalin-3-yl)aminocarbonyl]piperazine dispersed readily in an aqueous solution of (Aerosol OT). The median particle size (D50) measured at 13 μm.

A short description of data set [2]: Oral bioavailability in animal model studies. The data set is classed as in vivo. The text has this:
Because of the poor aqueous solubility of 1-(3,5-dimethoxyphenyl)-4-[(6-fluoro-2-methoxyquinoxalin-3-yl)aminocarbonyl]piperazine, production of a submicron suspension needed to be developed as a viable oral delivery option to avoid the need to administer large volumes of a 1-(3,5-dimethoxyphenyl)-4-[(6-fluoro-2-methoxyquinoxalin-3-yl)aminocarbonyl]piperazine solution to achieve the intended dosage levels.

A short description of data set [3]: Thermal analysis (TGA / DSC). Type of data set: physicochemical.
From the text: as §1
Mass loss after 220° C. may be attributable to thermal degradation.
Differential scanning calorimetry (see FIG. 4) confirmed the endotherm related to the initial mass loss at 108° C.

Results on 1 molecule are retold here after patent US10052321B2, “Nanoparticulate compositions and formulations of piperazine compounds” (Rexahn Pharmaceuticals, Inc., priority 2013, dated 2018).

For orientation: solubility means how much of the substance goes into solution per volume.

The structures appear in SMILES notation. A value given as a limit tells only on which side of the number the result lay.

`COc1cc(OC)cc(N2CCN(C(=O)Nc3nc4cc(F)ccc4nc3OC)CC2)c1` [Compound A, 1-(3,5-Dimethoxyphenyl)-4-[(6-fluoro-2-methoxyquinoxalin-3-yl)aminocarbonyl]piperazine]: in “Solubility in water”, the solubility is less than 0.1 µg/mL and the “solubility in water” value is reported as “practically insoluble”. For the same molecule, in data set [1], the “median particle size (D50)” value is on record as 13 μm. Further, in data set [2], the “oral bioavailability” value is given as “good oral bioavailability”. Further, the “thermal stability” value in data set [3] (TGA and DSC data) is reported as “thermally stable”. Moreover, in data set [3] (differential scanning calorimetry), the “no indication of decomposition until” value worked out at 223 °C.
